Reference: US20240318212A1, “PHOSPHORYLATION OF PHENOLIC PHYTOCHEMICALS BY TWO ENZYMES COUPLED SYSTEM” (National Taiwan University, priority 2023, published 2024)

Key:
ovariectomized rats = conditions: comparable to estradiol and raloxifene, surpassed genistein; cited from earlier work
[1] = versus parent genistein; cited from earlier work
[2] = versus parent genistein; cited from earlier work; remark: listed apart in the source
ErPPK = experiment: Effect of polyphenol derivatives on ErPPK activity; assay type: biochemical, unclassified Erysipelotrichaceae bacterium; conditions: 0.25 mM
Description: FIG. 4 illustrates the effect of polyphenol derivatives on ErPPK. Data are mean SD (n=3), with significance indicated by p<0.05 using t-test. n.s., non-significance.
Considering the known inhibitory effect of aromatic phosphonates on PPK2 enzymes, we investigated the impact of polyphenols and polyphenol phosphates on ErPPK activity to evaluate their integration into a one-pot bi-enzymatic system. LUT was selected as the polyphenol target, based on its incomplete conversion in microbial systems due to its toxic nature.

SMILES	osteoprotective effects (ovariectomized rats)	oral bioavailability [1]	solubility [2]	inhibitory effect on ErPPK activity (ErPPK)
O=c1c(-c2ccc(O)cc2)coc2cc(OP(=O)(O)O)cc(O)c12 [Genistein 7-O-phosphate]	improved	improved	improved	–
O=c1cc(-c2ccc(O)c(O)c2)oc2cc(O)cc(O)c12 [LUT, luteolin]	–	–	–	no significant inhibitory effect
